Where two headings read alike, the source gives them in different places.
Key:
[1] = test system: isolated heart of the guinea-pig; test: Force of contractions on isolated heart (positive inotrope action)
Procedure: Additionally, the derivative of Code No. 730 712 added to the conserving medium in a concentration of 1 μg/ml, permit an augmentation of 140% in the force of contractions on the isolated heart of the guinea- pig.

[2] = test system: painful stretchings caused by phenylbenzoquinone; test: Analgesic test with phenylbenzoquinone (painful stretchings); format: in vivo; details: Mus musculus, po; for ED50: read-out: 105 DE (DE 50); for inhibition in vivo at 100 mg/kg: read-out: Percentage of diminution of the number of painful stretchings
[3] = test system: painful stretchings caused by bradykinine; test: Analgesic test with bradykinine (painful stretchings); format: in vivo, mouse; details: for ED50: Mus musculus, po, read-out: 105 DE (DE 50)
[4] = test system: analgesic action of dextromoramide in the Eddy test; test: Eddy test (potentialisation of dextromoramide analgesia); format: in vivo, mouse; details: for ED50: Mus musculus, po, read-out: 105 DE (DE 50)
[5] = Lethal doses / percentage mortality; format: in vivo; details: in vivo, mouse; for LD50: po, Table IX, read-out: DE 50 (second column; DL 50) (converted)
From the text: (§1) As a result of a comparison between the pharmacologically active doses mentioned above, and the lethal doses listed in the following table XIV, the difference between the doses is sufficiently great to permit the utilisation of the derivatives of formula I in therapeutics.

[6] = test system: mouse; test: Lethal doses / percentage mortality; format: in vivo; details: Table IX
From the text: as §1

[7] = test system: bronchoconstriction provoked by acetylcholine; test: Bronchoconstriction provoked by intravenous acetylcholine, Konzett method; format: in vivo; details: guinea-pig, intraperitoneal injection of 100mg/kg
Procedure: Injected by intraduodenal means, the derivatives of formula I are capable of opposing the bronchoconstriction provoked in the guinea - pig by the intraveinous injection of acetylcholine and evaluated by the Konzett method.
By way of example, the following Table VI lists the percentage inhibition of the bronchoconstriction following the intraperitoneal injection of 100mg/kg of different derivatives of formula I.

[8] = test system: volume of urine emitted; test: Augmentation of urinary elimination (diuretic properties); format: in vivo; details: po; mouse, 25mg/kg/p.o., 6 hours; read-out: Percentage augmentation of urinary elimination
Procedure: The derivatives of formula I, administered by oral means to the mouse, simultaneously with a volume of 1ml of an isotonic solution of sodium chloride per 25g of the corporeal weight of the mouse, are capable of provoking an augmentation of the volume of urine emitted by reference to control animals, the volume being measured for 6 hours following administration.
The following Table VII indicates, by way of example the percentage augmentation of urinary elimination resulting from the administration of 25mg/kg/p.o. of different derivatives of formula I.

[9] = test system: local oedema caused by sub-plantar injection of carraghenine; test: Sub-plantar oedema caused by carraghenine (antiinflammatory); format: in vivo, rat; details: for inhibition in vivo at 100 mg/kg: 100 mg/kg/PO, read-out: Percentage reduction of subplantar oedema; for ED50: po
From the text: These properties are shown by a diminution of the local oedema caused by the sub-plantar injection of a phlogogenic agent, such as carraghenine, in the rat following the oral administration of derivatives of formula I.

[10] = test system: Shay ulcers; test: Gastric ulcers provoked by tying of the pylorus (Shay ulcers); format: in vivo; details: intraduodenal; rat, 50mg/kg/i.d.; read-out: Percentage reduction of shay ulcers
Procedure: The derivatives of formula I, administered by oral means, reduce the extent of gastric ulcers provoked in a rat by tying of the pylorus (Shay ulcers)
Table IV indicated, by way of example, the results obtained by the administration of 50mg/kg/i.d. of different derivatives of formula I.

[11] = test system: crying and jumping in the Randall and Selitto test; test: Randall and Selitto test; format: in vivo, rat; details: for ED50: po, read-out: 105 DE (DE 50)
[12] = test system: painful stretchings caused by acetic acid; test: Analgesic test with acetic acid (painful stretchings); format: in vivo, mouse; details: po, read-out: 105 DE (DE 50)
[13] = test system: pain threshold in the dentary pulp stimulation test; test: Dentary pulp stimulation test; format: in vivo; details: rabbit
From the text: Moreover, the derivatives of formula I, administered rectally to a rabbit, enabled the pain threshold to be raised in the dentary pulp stimulation test.
As an example, the following table XI gives the results of a comparative study between the activity of derivative code number 730 229 and that of glaphenine, the activities being estimated by the dentary stimulation test

[14] = test system: number of explorations in the escape enclosure; test: Number of explorations in the escape enclosure (sedative properties); format: in vivo, mouse; details: po
[15] = test system: number of explorations in the actimeter; test: Number of explorations in an actimeter having luminous beams and photoelectric cells (sedative properties); format: in vivo; details: mouse, oral, read-out: DE 50, number of explorations in the actimeter
Procedure: The derivatives of formula I, administered by oral means to the mouse, reduce the number of explorations in the escape enclosure and in an actimeter having luminous beams and photoelectric cells.
Also, the DE 50 of the derivative of code No. 730 229 is 82mg/kg/p.o. for the test on the number of explorations in the escape enclosure and 120mg/kg/p.o. for the test on the number of explorations in the actimeter.

[16] = test system: arterial pressure of an anaesthetised rat; test: Increase in arterial pressure of anaesthetised rat (hypertensive properties); format: in vivo; details: 2 mg/kg/i.v.
Procedure: Administered by intraveinous means, the derivatives of formula I provoke an increase in the arterial pressure of an anaosthetised rat.
By way of example, the results obtained by the administration of 2 mg/kg/i.v. of different derivatives of formula I are listed in the following Table III.

[17] = test system: isolated heart of guinea-pig; test: Augmentation of flow of coronary vessels of isolated heart (vasodilatatory); details: Cavia porcellus, read-out: Percentage augmentation of flow of isolated heart of guinea-pig
Procedure: The derivatives of formula I are capable of augmenting the flow of the coronary vessels of this isolated heart of a guinea - pig, when said derivatives are added in the perfusion liquid of said organ.
The percentage augmentation of the flow of the isolated heart of the guinea - pig by adding different derivatives of formula I to the perfusion liquid are given by way of example in the following Table V.

[18] = test system: arterial pressure of anaesthetised rat; test: Lowering of arterial pressure of anaesthetised rat (hypotensive properties); format: in vivo; details: 2 mg/kg/i.v.
From the text: Administered by intraveinous means to an anaesthetised rat, the derivatives of formula I provoke a lowering of the arterial pressure.
By way of example, the following Table VIII mentions the results obtained by administration of different derivatives of formula I.

[19] = antiinflammatory activity, rat, read-out: DE 50 (the source's name)

| Compound | ED50 [2] | ED50 [4] | LD50 [5] | DE 50 (second column; DL 50) [6] | Percentage inhibition of bronchoconstriction [7] | change in vivo at 25 mg/kg [8] | mortality ([5]; 2000 mg/kg, 2 000 mg/kg/PO) | inhibition in vivo at 50 mg/kg [10] | ED50 [3] | further results |
| --- | --- | --- | --- | --- | --- | --- | --- | --- | --- | --- |
| Cc1cc(Nc2ccc(OCCN3CCCC3)cc2)nc(-c2ccccc2)n1 [730 218] | 37 mg/kg | 50 mg/kg | 1500 mg/kg | 1 500 mg/kg/PO |  |  |  |  |  | positive inotrope action ([1]; 0.5 μg/ml): positive inotrope action; Percentage of diminution of the number of painful stretchings ([3]; test with bradykinine, 100 mg/kg/PO): 40%; mortality ([5]; 1 2500 mg/kg/PO): ~50% |
| Cc1cc(Nc2ccccc2C(=O)OCC(O)CO)nc(-c2cccc(F)c2)n1 (centres unmarked) [72 826] |  |  |  |  | 100% | 80% | 0% |  |  | inhibition in vivo at 100 mg/kg ([9]; rat): 60% |
| Cc1cc(Nc2ccc(OCCN(C)C)cc2)nc(-c2ccc(Cl)cc2)n1 [730 225] | 42 mg/kg | 80 mg/kg | > 2000 mg/kg |  |  |  | ~20% | 53% |  | Percentage of diminution of the number of painful stretchings ([11]; Randall and Selitto test, 100 mg/kg/PO): 50% |
| Cc1cc(Nc2ccc(OCCN(C)C)cc2)nc(-c2cccc(Cl)c2)n1 [730 262] | 52 mg/kg | 60 mg/kg | 2500 mg/kg | 2 500 mg/kg/PO |  |  |  |  | 100 mg/kg | mortality ([5]; 2 2500 mg/kg/PO): ~50% |
| O=C(OCC(O)CO)c1ccccc1Nc1ccnc2cc(Cl)ccc12 (centres unmarked) [glaphenine, N-(7-chloro-4-quinolyl) anthranilic acid 2,3-dihydroxypropylester] | 60 mg/kg |  | 1900 mg/kg | 1 900 mg/kg/PO |  |  |  |  | 48 mg/kg | ED50 ([12]; test with acetic acid, mouse): 80 mg/kg; ED50 ([11]; Randall and Selitto test, rat): 65 mg/kg; Duration of action ([13]; 50 mg/kg rectally): 1 h; Number of rabbits whose pain threshold is increased by 0,5 V ([13]; 50 mg/kg rectally): 4/10; Duration of action ([13]; 100 mg/kg rectally): 1,5 hours; Number of rabbits whose pain threshold is increased by 0,5 V ([13]; 100 mg/kg rectally): 6/10; Peak action ([13]; 100 mg/kg rectally): 45 mn; Duration of action ([13]; 200 mg/kg rectally): 2 h; Number of rabbits whose pain threshold is increased by 0,5 V ([13]; 200 mg/kg rectally): 8/10; ED50 [9, 19]: 9 mg/kg |
| CC(=O)Oc1ccccc1C(=O)O [acetylsalicylic acid, reference compound] | 72 mg/kg | > 200 mg/kg | 700 mg/kg |  |  |  |  |  | 180 mg/kg | ED50 ([12]; Mus musculus): 115 mg/kg; effect in Eddy test (40 % with 200) ([4]; 200 mg/kg/PO): 40%; ED50 ([11]; Rattus norvegicus): 110 mg/kg; ED50 ([9]; Rattus norvegicus, read-out: DE 50): 40 mg/kg |
| Cc1cc(Nc2ccccc2C(N)=O)nc(-c2cccc(C(F)(F)F)c2)n1 [72 419] |  |  |  |  |  | 80% | 0% |  |  | positive inotrope action ([1]; 1 μg/ml): positive inotrope action; inhibition in vivo at 100 mg/kg ([9]; rat): 50% |
| Cc1cc(Nc2ccc(C(N)=O)cc2)nc(-c2ccc(Cl)cc2)n1 [72 311] |  |  |  |  | 80% |  | 0% | 40% |  | inhibition in vivo at 100 mg/kg ([9]; rat): 50% |
| Cc1cc(Nc2ccc(C(N)=O)cc2)nc(-c2ccc3c(c2)OCO3)n1 [730 025] |  |  |  |  | 50% | 140% | 0% | 35% |  |  |
| Cc1cc(Nc2ccc(OCCN3CCOCC3)cc2)nc(-c2ccccc2)n1 [730 229] | 10 mg/kg | 23 mg/kg | 2800 mg/kg | 2 800 mg/kg/PO |  | 129% |  |  | 45 mg/kg | ED50 ([14]; Mus musculus, read-out: DE 50, number of explorations in the escape enclosure): 82 mg/kg; ED50 [15]: 120 mg/kg; ED50 ([12]; test with acetic acid, mouse): 70 mg/kg; ED50 ([11]; Randall and Selitto test, rat): 45 mg/kg; Duration of action ([13]; 50 mg/kg rectally): 2 h; Number of rabbits whose pain threshold is increased by 0,5 V ([13]; 50 mg/kg rectally): 7/10; Peak action ([13]; 50 mg/kg rectally): 1 h; antiinflammatory activity compared with reference compounds ([9]; comparison of Table XIII): clearly superior to that of amidopyrine and acetylsalicylic acid, and hardly inferior to that of glaphenine; ED50 [9, 19]: 22 mg/kg; mortality ([5]; 2 800 mg/kg/PO): ~50% |
| Cc1cc(Nc2ccc(C(=O)N3CCCCC3)cc2)nc(-c2ccc(Cl)cc2)n1 [72 276] |  |  |  |  | 50% |  | 0% | 40% |  |  |
| Cc1cc(Nc2ccc(OCCN3CCOCC3)cc2)nc(-c2cccc(C(F)(F)F)c2)n1 [730 712] |  |  |  |  |  | 90% | 0% |  |  | inhibition in vivo at 100 mg/kg ([14]; mouse, escape enclosure, 100mg/kg/p.o., read-out: Percentage diminution of number of explorations): 32%; Percentage augmentation of arterial pressure [16]: 23%; activation at 1 µg/mL ([1]; Cavia porcellus, 1 μg/ml, read-out: augmentation in the force of contractions): 140%; inhibition in vivo at 100 mg/kg [2]: 60% |
| Cc1cc(Nc2ccccc2C(=O)OCC(O)CO)nc(-c2cccc(C(F)(F)F)c2)n1 (stereo not drawn) [72 502, 2 - (3' - trifluoromethylphenyl)-4-[ortho (β, γ-dihydroxy propoxycarbonyl)phenylamino] -6-methyl pyrimidine] |  |  |  |  | 50% |  | 0% | 35% |  |  |
| Cc1cc(Nc2ccc(OCCN(C)C)cc2)nc(-c2cccc(C(F)(F)F)c2)n1 [730 241] |  |  |  |  |  |  | 0% |  |  | activation at 0.5 µg/mL ([17]; 0.5 μg/ml): 77%; Percentage reduction of arterial pressure of anaesthetised rat [18]: 24%; Duration of effect ([18]; hypotensive effect): 30 mn; inhibition in vivo at 100 mg/kg [2]: 67% |
| Cc1c(N(C)C)c(=O)n(-c2ccccc2)n1C [amidopyrine, 4-dimethylamino-2,3-dimethyl-1 phenyl-3-pyrazolin-5-one, reference compound] | 45 mg/kg | 35 mg/kg | 1050 mg/kg | 1 050 mg/kg/PO |  |  |  |  | 48 mg/kg | ED50 ([12]; test with acetic acid, mouse): 80 mg/kg; DE 50 / DL 50 ([11]; Randall and Selitto test): 1.10^-1; ED50 ([11]; Randall and Selitto test, rat): 110 mg/kg; ED50 [9, 19]: 140 mg/kg |
| Cc1cc(Nc2ccc(C(=O)N3CCCC3)cc2)nc(-c2ccc(Cl)cc2)n1 [72 255] |  |  |  |  | 50% |  | 0% | 35% |  | activation at 1 µg/mL ([17]; 1 μg/ml): 45%; inhibition in vivo at 100 mg/kg ([9]; rat): 60% |
